Test results reported in publication PMC3375117 (International Microbiology, 2011).
In brackets after ≈: the same amount, converted by molar mass. Where two headings read alike, the source gives them in different places.

Assays:
[1] = test system: P. falciparum (K1, multidrug-resistant strain); conditions: cited from earlier work
[2] = test system: amastigotes of L. donovani (LD-1S/MHOM/SD/00-strain 1S); experiment: In vitro antiparasitic assay: Leishmania; type: cell-based; conditions: read-out: typical IC50 response of L. donovani
African trypanosomiasis = conditions: mice; cited from earlier work
T. cruzi = conditions: cited from earlier work
[3] = test system: chloroquine-resistant strain (Indocrina W2) of Plasmodium falciparum; conditions: cited from earlier work
Vero cells [4] = conditions: cited from earlier work
[5] = test system: amastigotes of L. donovani (LD-1S/MHOM/SD/00-strain 1S); conditions: cited from earlier work
Vero cells [6] = experiment: Vero cell toxicity; conditions: Vero cells versus L. donovani
[7] = test system: recombinant Tulahuen clone C4 of T. cruzi; conditions: read-out: IC50 T. cruzi; cited from earlier work
[8] = test system: human breast cancer cell line MCF-7; conditions: read-out: IC50 cytotoxic activity MCF-7; cited from earlier work
[9] = test system: Leishmania promastigote and amastigote forms; conditions: cited from earlier work
Vero cells [10] = test system: Vero cells
[11] = read-out: IC50 P. falciparum K1 strain, in vitro
[12] = read-out: IC50 P. falciparum K1, K1, multidrug-resistant strain
[13] = read-out: cytotoxicity to Vero cells IC50
[14] = read-out: IC50 growth of Leishmania donovani in the amastigote form

## COC1=CC(=O)C(Cl)=C(C)C1=O [2-chloro-5-methoxy-3-methylcyclohexa-2,5-diene-1,4-dione]
[1]; [11]
  IC50: 1.84 µM

## CC[C@@H](O)[C@@H]1C[C@@H]2OC(=O)c3c(cc(OC)c(OC)c3O)[C@@H]2O1 [11-hydroxymonocerin]
[1]; [12]
  IC50: 7.7 µM

## C[C@@H]1[C@H](O)[C@@H](C)/C=C/C=C/C=C/C=C/C=C/C=C/C=C/[C@H](O[C@@H]2O[C@H](C)[C@@H](O)[C@H](N)[C@@H]2O)C[C@@H]2O[C@](O)(C[C@@H](O)C[C@@H](O)[C@H](O)CC[C@@H](O)C[C@@H](O)CC(=O)O[C@H]1C)C[C@H](O)[C@H]2C(=O)O [Amphotericin B]
[2]
  IC50: 0.07 to 0.12 µg/mL (≈ 0.0758 to 0.13 µM)

## C/C(=C\Cc1c(O)c(Cl)c(C)c(C=O)c1O)CC/C=C(\C)[C@@H]1CC(=O)C(C)(C)O1 [Ascofuranone]
African trypanosomiasis
  therapeutic effects for African trypanosomiasis: good therapeutic effects

## COc1cccc2oc3c(Cl)c(O)c([C@H]4CCC[C@@H](C)O4)c(O)c3c(=O)c12 [Chaetoxanthone C]
T. cruzi
  IC50 T. cruzi: 1.5 µg/mL (≈ 3.84 µM)

## CCN(CC)CCCC(C)Nc1ccnc2cc(Cl)ccc12 (stereo not shown) [Chloroquine, reference compound]
[3]; positive control
  IC50: 0.08 to 0.1 µM

## O=C1CCC2(Oc3cccc4cccc(c34)O2)c2cccc(O)c21 [Compound 1, Palmarumycin CP2]
Vero cells [4]; [13]
  IC50: 162 µM
[5]; [14]
  IC50: 3.93 µM
Vero cells [6]
  therapeutic window: times greater anti-leishmanial activity than cytotoxicity: 41 times

## O=C1CCC2(Oc3cccc4cccc(c34)O2)c2c(O)ccc(O)c21 [Compound 2, palmarumycin CP17]
Vero cells [4]; [13]
  IC50: 174 µM
[5]; [14]
  IC50: 1.34 µM
Vero cells [6]
  therapeutic window: times greater anti-leishmanial activity than cytotoxicity: 130 times

## Oc1cccc2c1[C@@H](O)CCC21Oc2cccc3cccc(c23)O1 [Compound 5, CJ-12,371]
Vero cells [4]; [13]
  IC50: 9 µM
[5]; [14]
  IC50: 8.4 µM
Vero cells [6]
  therapeutic window: times greater anti-leishmanial activity than cytotoxicity: 75 times

## O=C1C=C[C@]23Oc4ccc(O)c5c4[C@](CCC5=O)(Oc4cccc1c42)O3 [Compound 6, preussomerin EG^1]
Vero cells [4]; [13]
  IC50: 150 µM
[5]; [14]
  IC50: 0.12 µM
Vero cells [6]
  therapeutic window: times greater anti-leishmanial activity than cytotoxicity: 12 times

## COc1c(CC(C)O)c2c3c(CC(C)O)c(OC)c(=O)c4c(O)cc5c(c6c(cc(O)c(c1=O)c62)OCO5)c43 (stereo not shown) [Compound 7, cercosporin]
[3]; read-out: IC50 P. falciparum
  IC50: 1.03 µM
[7]
  IC50: 1.08 µM
[8]
  IC50: 4.68 µM
[5]; read-out: IC50 L. donovani
  IC50: 0.46 µM

## CC(C)C[C@@H](C(=O)N[C@H]1COC(=O)[C@H](Cc2ccccc2)N(C)C(=O)[C@H](CC(C)C)N(C)C(=O)[C@@H](NC(=O)[C@H](CC(C)C)N(C)C)COC(=O)[C@H](Cc2ccccc2)N(C)C(=O)[C@H](CC(C)C)N(C)C1=O)N(C)C [IB-01212]
[9]
  leishmanicidal activity: low micromolar concentrations

## CCC[C@H]1C[C@H]2OC(=O)c3c(cc(OC)c(OC)c3O)[C@H]2O1 [Monocerin]
[1]; [12]
  IC50: 0.68 µM

## COc1cc2c3c(oc2c(C)c1O)C(=O)C(C)=CC3=O [xylariaquinone A]
[1]; [11]
  IC50: 6.68 µM

## palmarumycin CP18 [Compound 3]
Vero cells [4]
  IC50: 152 µM
[5]; [14]
  IC50: 0.62 µM
Vero cells [10]
  therapeutic window: times greater anti-leishmanial activity than cytotoxicity: 245 times

## palmarumycin CP19 [Compound 4]
Vero cells [4]
  IC50: 140 µM
[5]; [14]
  IC50: 11.6 µM
Vero cells [10]
  therapeutic window: times greater anti-leishmanial activity than cytotoxicity: 18 times
